From ChEMBL document CHEMBL3301361, “Experimental in vitro DMPK and physicochemical data on a set of publicly disclosed compounds”
Values after ≈ are worked out from the molar mass of the structure shown.

Columns and labels:
physchem [1] = conditions: octan-1-ol/water, pH 7.4, LogD7.4
physchem [2] = conditions: pH 7.4 buffer

Q: Which results are given for `COc1cc2ncnc(Nc3cccc(Cl)c3F)c2cc1CN1CCC[C@H]1C(N)=O`?
A: logD (physchem [1]): 3.58; solubility thermodynamic (physchem [2]): 257 µM (≈ 110 µg/mL)

Q: Which logD (physchem [1]) does the source give for `COc1cc2ncnc(Nc3cccc(Cl)c3F)c2cc1CN(C)[C@@H](C)C(N)=O` here?
A: Its logD is 3.42.

Q: What about the solubility thermodynamic (physchem [2]) of the same compound?
A: Its solubility thermodynamic is 42.7 µM (≈ 17.8 µg/mL).

Q: For `CN1CCC(n2cc(-c3cnc(N)c(-c4nc5ccc(F)cc5o4)c3)cn2)CC1`, which logD (physchem [1]) is on record?
A: Its logD is 3.35.

Q: What about the solubility thermodynamic (physchem [2]) of the same compound?
A: Its solubility thermodynamic is 13.5 µM (≈ 5.3 µg/mL).

Q: Which logD (physchem [1]) does the source give for `COc1cc2ncnc(Nc3cccc(Cl)c3F)c2cc1CN(C)[C@H](C)C(N)=O` here?
A: The logD was 3.44.

Q: What about the solubility thermodynamic (physchem [2]) of the same compound?
A: The solubility thermodynamic was 41.7 µM (≈ 17.4 µg/mL).

Q: Which logD (physchem [1]) does the source give for `COc1cc2ncnc(Nc3cccc(Cl)c3F)c2cc1CN1CCC[C@@H]1C(N)=O` here?
A: The logD was 3.58.

Q: What about the solubility thermodynamic (physchem [2]) of the same compound?
A: Its solubility thermodynamic is 195 µM (≈ 83.8 µg/mL).

Q: Which logD (physchem [1]) does the source give for `O=C1COC2(CCN(S(=O)(=O)c3ccc(-c4ccc5cccnc5c4)cc3)CC2)CN1C1CC1` here?
A: The logD was 3.24.

Q: And the solubility thermodynamic (physchem [2])?
A: The solubility thermodynamic was 1.9 µM (≈ 0.907 µg/mL).

Q: Which logD (physchem [1]) does the source give for `CCCSc1ncccc1C(=O)N(C)C1CCCCC1` here?
A: Its logD is 3.36.

Q: What about the solubility thermodynamic (physchem [2]) of the same compound?
A: The solubility thermodynamic was 955 µM (≈ 279 µg/mL).

Q: For `CCCSc1nc(NC)ccc1C(=O)N[C@H]1C2CC3CC1C[C@](O)(C3)C2`, which logD (physchem [1]) is on record?
A: The logD was 3.27.

Q: And the solubility thermodynamic (physchem [2])?
A: Its solubility thermodynamic is 46.8 µM (≈ 17.6 µg/mL).

Q: What does the source list for `CCCSc1nc(N2CCOCC2)ccc1C(=O)N[C@H]1C2CC3CC1C[C@](O)(C3)C2`?
A: logD (physchem [1]): 3.2; solubility thermodynamic (physchem [2]): 479 µM (≈ 207 µg/mL)

Q: Which logD (physchem [1]) does the source give for `COc1cc2c(Nc3cc(CC(=O)Nc4cccc(F)c4F)[nH]n3)ncnc2cc1OCCCN(CCO)CC(C)C` here?
A: Its logD is 3.61.

Q: And the solubility thermodynamic (physchem [2])?
A: The solubility thermodynamic was 132 µM (≈ 76.9 µg/mL).

Q: For `COc1cc2ncnc(Nc3ccc(Cl)c(O)c3)c2cc1OC`, which logD (physchem [1]) is on record?
A: The logD was 3.3.

Q: What about the solubility thermodynamic (physchem [2]) of the same compound?
A: Its solubility thermodynamic is 1.4 µM (≈ 0.464 µg/mL).

Q: What does the source list for `COc1cc2c(Nc3ccc(Cl)cc3F)ncnc2cc1OCCCN1CCOCC1`?
A: logD (physchem [1]): 3.4; solubility thermodynamic (physchem [2]): 21.9 µM (≈ 9.79 µg/mL)

Q: Which logD (physchem [1]) does the source give for `CN(C)CCOc1ccc(-c2oc3ncnc(NC[C@@H]4CCCO4)c3c2-c2ccccc2)cc1` here?
A: Its logD is 3.6.

Q: What about the solubility thermodynamic (physchem [2]) of the same compound?
A: The solubility thermodynamic was 69.2 µM (≈ 31.7 µg/mL).

Q: Which results are given for `CN1CCN([C@H]2C[C@@H](c3nc(-c4ccc5ccc(-c6ccccc6)nc5c4)c4c(N)nccn43)C2)CC1`?
A: logD (physchem [1]): 3.2; solubility thermodynamic (physchem [2]): 204 µM (≈ 100 µg/mL)

Q: Which results are given for `C[C@H](CN(C)C(=O)CO)Oc1cccc2ncnc(Nc3ccc(OCc4ccccn4)c(Cl)c3)c12`?
A: logD (physchem [1]): 3.22; solubility thermodynamic (physchem [2]): 12.6 µM (≈ 6.4 µg/mL)

Q: For `Cc1ccc(Oc2ccc(Nc3ncnc4[nH]nc(OCCN5CCC(O)CC5)c34)cc2Cl)cn1`, which logD (physchem [1]) is on record?
A: The logD was 3.4.

Q: And the solubility thermodynamic (physchem [2])?
A: Its solubility thermodynamic is 28.2 µM (≈ 14 µg/mL).

Q: Which logD (physchem [1]) does the source give for `COc1cc2ncnc(Nc3ccc(F)c(Cl)c3)c2cc1OCCCN1CCCCC1` here?
A: The logD was 3.3.

Q: And the solubility thermodynamic (physchem [2])?
A: The solubility thermodynamic was 20 µM (≈ 8.9 µg/mL).

Q: With `CCN(CC)C(=O)c1ccc2[nH]c(-c3cc(C)cc(C)c3)c(CCNCCCCc3ccncc3)c2c1` as the compound, how does the logD (physchem [1]) read?
A: The logD was 3.3.

Q: And the solubility thermodynamic (physchem [2])?
A: Its solubility thermodynamic is 871 µM (≈ 433 µg/mL).

Q: For `COc1cc2ncnc(Nc3ccc(F)c(Cl)c3)c2cc1OCCN1CCN(C)CC1`, which logD (physchem [1]) is on record?
A: The logD was 3.3.

Q: And the solubility thermodynamic (physchem [2])?
A: Its solubility thermodynamic is 64.6 µM (≈ 28.8 µg/mL).

Q: For `COc1cc2ncnc(NCc3ccccc3)c2cc1OC`, which logD (physchem [1]) is on record?
A: Its logD is 3.29.

Q: And the solubility thermodynamic (physchem [2])?
A: The solubility thermodynamic was 38.9 µM (≈ 11.5 µg/mL).

Q: Which results are given for `CS(=O)(=O)n1c2ccccc2c2cc(NC(=O)CCc3ccncc3)ccc21`?
A: logD (physchem [1]): 3.4; solubility thermodynamic (physchem [2]): 22.9 µM (≈ 9.01 µg/mL)

Q: For `O=C(CCc1ccncc1)Nc1ccc(C(=O)c2ccccc2)cc1`, which logD (physchem [1]) is on record?
A: Its logD is 3.4.

Q: And the solubility thermodynamic (physchem [2])?
A: Its solubility thermodynamic is 8.1 µM (≈ 2.68 µg/mL).

Q: With `CN(C)C(=O)[C@H](Cc1ccccc1)NC(=O)c1cc2cc(F)ccc2[nH]1` as the compound, how does the logD (physchem [1]) read?
A: The logD was 3.5.

Q: And the solubility thermodynamic (physchem [2])?
A: Its solubility thermodynamic is 3.6 µM (≈ 1.27 µg/mL).

Q: Which results are given for `Oc1cccc2nc(-c3ccccc3)cc(O)c12`?
A: logD (physchem [1]): 3.37; solubility thermodynamic (physchem [2]): 5 µM (≈ 1.19 µg/mL)

Q: Which results are given for `Cn1c(C#N)ccc1-c1cc(F)c2c(c1)C(C)(C)C(=O)N2`?
A: logD (physchem [1]): 3.21; solubility thermodynamic (physchem [2]): 5.4 µM (≈ 1.53 µg/mL)

Q: With `COc1cc(Nc2ncnc3cccc(O[C@H](C)C(=O)N4CCOCC4)c23)ccc1Oc1ccc(C)nc1` as the compound, how does the logD (physchem [1]) read?
A: Its logD is 3.6.

Q: And the solubility thermodynamic (physchem [2])?
A: Its solubility thermodynamic is 37.2 µM (≈ 19.2 µg/mL).

Q: With `CN1CCC(Oc2cccc3ncnc(Nc4ccc(OCc5cnccn5)c(Cl)c4)c23)CC1` as the compound, how does the logD (physchem [1]) read?
A: The logD was 3.21.

Q: And the solubility thermodynamic (physchem [2])?
A: Its solubility thermodynamic is 12.3 µM (≈ 5.87 µg/mL).

Q: What does the source list for `CC(C)C[C@H](N[C@@H](c1ccc(-c2ccc(S(C)(=O)=O)cc2)cc1)C(F)(F)F)C(=O)NCC#N`?
A: logD (physchem [1]): 3.24; solubility thermodynamic (physchem [2]): 4 µM (≈ 1.93 µg/mL)

Q: With `Clc1ccc2c(c1Nc1ccnc(Nc3cc(N4CCOCC4)cc(N4CCOCC4)c3)n1)OCO2` as the compound, how does the logD (physchem [1]) read?
A: The logD was 3.25.

Q: And the solubility thermodynamic (physchem [2])?
A: Its solubility thermodynamic is 30.9 µM (≈ 15.8 µg/mL).

Q: With `Cc1ncc(-c2ccnc(Nc3ccc(N(C)C)cc3)n2)n1C(C)C` as the compound, how does the logD (physchem [1]) read?
A: The logD was 3.51.

Q: What about the solubility thermodynamic (physchem [2]) of the same compound?
A: Its solubility thermodynamic is 100 µM (≈ 33.6 µg/mL).

Q: With `COc1ccc(Nc2nccc(-c3cnc(C)n3C(C)C)n2)cc1` as the compound, how does the logD (physchem [1]) read?
A: The logD was 3.43.

Q: And the solubility thermodynamic (physchem [2])?
A: Its solubility thermodynamic is 209 µM (≈ 67.6 µg/mL).

Q: What does the source list for `CCCS(=O)(=O)c1ccc(Nc2nccc(-c3cnc(C)n3C(C)C)n2)cc1`?
A: logD (physchem [1]): 3.37; solubility thermodynamic (physchem [2]): 138 µM (≈ 55.1 µg/mL)

Q: Which logD (physchem [1]) does the source give for `CC(C)C[C@H](NC(=O)N1CCOCC1)C(=O)N[C@H](/C=C/S(=O)(=O)c1ccccc1)CCc1ccccc1` here?
A: The logD was 3.4.

Q: And the solubility thermodynamic (physchem [2])?
A: The solubility thermodynamic was 17 µM (≈ 8.97 µg/mL).

Q: Which results are given for `COc1cc2ncc(C(N)=O)c(Nc3cccc(Cl)c3)c2cc1OC`?
A: logD (physchem [1]): 3.5; solubility thermodynamic (physchem [2]): 10 µM (≈ 3.58 µg/mL)

Q: Which logD (physchem [1]) does the source give for `COc1cc(Nc2cc(Oc3ccc(C)nc3)ccn2)cc(OC)c1OC` here?
A: The logD was 3.21.

Q: And the solubility thermodynamic (physchem [2])?
A: Its solubility thermodynamic is 31.6 µM (≈ 11.6 µg/mL).

Q: Which logD (physchem [1]) does the source give for `COc1ccccc1Nc1cc(Oc2cc(C)c(C)nc2-c2ccccn2)ccn1` here?
A: Its logD is 3.37.

Q: And the solubility thermodynamic (physchem [2])?
A: The solubility thermodynamic was 22.9 µM (≈ 9.12 µg/mL).

Q: What does the source list for `O=C(N1CCN(c2ccncc2Cl)CC1)N1CCN(S(=O)(=O)c2ccc(C(F)(F)F)cc2)CC1`?
A: logD (physchem [1]): 3.54; solubility thermodynamic (physchem [2]): 3.9 µM (≈ 2.02 µg/mL)

Q: With `COCCCNS(=O)(=O)c1ccc(Nc2nccc(-c3cnc4ccccn34)n2)cc1` as the compound, how does the logD (physchem [1]) read?
A: The logD was 3.41.

Q: And the solubility thermodynamic (physchem [2])?
A: Its solubility thermodynamic is 2.4 µM (≈ 1.05 µg/mL).

Q: Which results are given for `COc1ccc(Cn2cc3c(=O)n(C)c(=O)n(CC(C)C)c3c2)cc1`?
A: logD (physchem [1]): 3.52; solubility thermodynamic (physchem [2]): 17 µM (≈ 5.8 µg/mL)
